Measurements: patent US10308667B2, “Oxadiazolopyridine derivatives for use as ghrelin O-acyl transferase (GOAT) inhibitors” (Boehringer Ingelheim International GmbH, priority 2016, dated 2019)
pIC50: −log10 of the molar value.

Molecular target: human GOAT (Homo sapiens (Human), UniProt Q96T53)
Assay: Determination of hGOAT Activity in HEK293 Cells after Incubation with Test Compound
Type: cell-based
Settings: HEK293 cells stably transfected with preproghrelin and human GOAT; octanoate-BSA 100 μM; acyl-ghrelin in medium by ELISA after 5 hours
Experimental: Determination of hGOAT Activity in HEK293 Cells after Incubation with Test Compound
HEK293 cells stably transfected with two expression vectors, one coding for preproghrelin cDNA and a second for the expression of human GOATcDNA are used as a cellular model. After feeding the cells with octanoic acid for 5 hours, acyl-ghrelin is measured in cell culture medium by an ELISA procedure.
Cellline: Hek293 hGOAT/PPGhrl Clone #1B8Sodium octanoate, Sigma, Cat.-No. C5038
BD Poly-D-Lysin 384-well Plates, black-clear polystyrene BD Bioscience Cat.-No. […] ELISA human acylated Ghrelin Kit purchased from Bertin Pharman (detailed composition of buffers e.g. wash-puffer, ELISA buffer not known)
Cells are plated with a density of 5000 cells/well in 384-well poly-D-lysin plates and incubated for 1 day at 37° C., 5% CO2 in DMEM medium, 10% FCS, 1×NEAA, Puromycin (0.5 μg/ml) and G418 (1 mg/ml). Then the medium is changed to a identical medium without FCS and containing Octanoate-BSA (final concentration 100 μM each) and compound in DMSO (final DMSO concentration 0.3%). After incubation for 5 hours acylghrelin in the medium is measured by ELISA
The medium sample is diluted 1:25 in Elisa buffer, A 25 ul aliquot is transferred to a 384-well ELISA plate previously washed 4 times with 100 μL wash buffer, and 25 μl tracer-solution is added. After incubation overnight (˜20 h) at 4° C. temperature the plate is washed 4 times with 100 μl wash-buffer per well. Finally 50 μl Ellman's reagent is added to each well and the plate is incubated in the dark for 20 minutes. The absorbance is measured at 405 nm in an Envision multilabel reader and the amount of acylated ghrelin is calculated according to a acylated ghrelin standard curve provided in the same plate.
The analysis of the data is performed by calculation of the percentage of acyl-ghrelin produced in the presence of test compound compared to the amount of acyl-ghrelin produced in the vehicle control samples. An inhibitor of the GOAT enzyme will give values between 100% CTL (no inhibition) and 0% CTL (complete inhibition). IC50 values are calculated with Assay Explorer or other suited software based on curve fitting of results of 8 different compound concentrations.

Sequence of human GOAT (Q96T53 whole entry): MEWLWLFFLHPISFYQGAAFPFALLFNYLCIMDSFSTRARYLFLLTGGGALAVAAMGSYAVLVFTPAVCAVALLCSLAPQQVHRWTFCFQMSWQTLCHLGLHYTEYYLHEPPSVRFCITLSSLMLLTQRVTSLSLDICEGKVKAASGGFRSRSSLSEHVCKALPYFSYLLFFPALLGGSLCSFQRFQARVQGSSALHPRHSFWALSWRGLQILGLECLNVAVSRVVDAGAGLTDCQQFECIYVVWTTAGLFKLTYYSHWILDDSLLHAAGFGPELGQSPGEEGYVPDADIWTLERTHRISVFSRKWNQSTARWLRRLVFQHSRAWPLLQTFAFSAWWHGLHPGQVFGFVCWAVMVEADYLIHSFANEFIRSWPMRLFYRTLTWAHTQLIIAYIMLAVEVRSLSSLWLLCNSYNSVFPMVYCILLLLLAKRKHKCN

Row | pIC50 | SMILES
1 | 8.42 | Cc1nc2nonc2c(N)c1Cc1ncc(C#N)c(C2CCOC2)n1 (stereo not shown) [Example 80, 2-(7-amino-5-methyl-[1,2,5]oxadiazolo[3,4-b]pyridin-6-ylmethyl)-4-(oxolan-3-yl)pyrimidine-5-carbonitrile]
2 | 8.15 | Cc1nc(Cc2c(C)nc3nonc3c2N)ncc1C#N [Example 81, 2-(7-amino-5-methyl-[1,2,5]oxadiazolo[3,4-b]pyridin-6-ylmethyl)-4-methylpyrimidine-5-carbonitrile]
3 | 9.00 | Cc1nc2nonc2c(N)c1Cc1ncc(C#N)c(C(C)(F)F)n1 [Example 82, 2-(7-amino-5-methyl-[1,2,5]oxadiazolo[3,4-b]pyridin-6-ylmethyl)-4-(1,1-difluoroethyl)pyrimidine-5-carbonitrile]
4 | 10.11 | Cc1nc2nonc2c(N)c1Cc1ncc(Br)c(C(F)(F)F)n1 [Example 83, 6-[5-bromo-4-(trifluoromethyl)pyrimidin-2-yl]methyl-5-methyl-[1,2,5]oxadiazolo[3,4-b]pyridin-7-amine]
5 | 9.68 | Cc1nc2nonc2c(N)c1Cc1ncc(Br)c(C(F)F)n1 [Example 84, 6-[5-bromo-4-(difluoromethyl)pyrimidin-2-yl]methyl-5-methyl-[1,2,5]oxadiazolo[3,4-b]pyridin-7-amine]
6 | 8.16 | Cc1nc2nonc2c(N)c1Cc1cccc([S+](C)[O-])n1 (stereo not shown) [Example 85, 6-(6-Methanesulfinyl-pyridin-2-ylmethyl)-5-methyl-[1,2,5]oxadiazolo[3,4-b]pyridin-7-ylamine]
7 | 7.72 | Cc1nc2nonc2c(N)c1Cc1cccc(S(C)(=O)=O)n1 [Example 86, 6-(6-Methanesulfonyl-pyridin-2-ylmethyl)-5-methyl-[1,2,5]oxadiazolo[3,4-b]pyridin-7-ylamine]
8 | 8.05 | Cc1nc2nonc2c(N)c1Cc1ccc([S+](C)[O-])cn1 (stereo not shown) [Example 87, 6-(5-Methanesulfinyl-pyridin-2-ylmethyl)-5-methyl-[1,2,5]oxadiazolo[3,4-b]pyridin-7-ylamine]
9 | 8.48 | Cc1nc2nonc2c(N)c1Cc1ccc(S(C)(=O)=O)cn1 [Example 88, 6-(5-Methanesulfonyl-pyridin-2-ylmethyl)-5-methyl-[1,2,5]oxadiazolo[3,4-b]pyridin-7-ylamine]
10 | 9.37 | Cc1nc2nonc2c(N)c1Cc1ccc(C(F)(F)F)c(C(N)=O)n1 [Example 89, 6-(7-Amino-5-methyl-[1,2,5]oxadiazolo[3,4-b]pyridin-6-ylmethyl)-3-trifluoromethyl-pyridine-2-carboxylic Acid Amide]
11 | 9.27 | Cc1nc2nonc2c(N)c1Cc1ccc(OC(F)F)c(C(N)=O)n1 [Example 90, 6-(7-Amino-5-methyl-[1,2,5]oxadiazolo[3,4-b]pyridin-6-ylmethyl)-3-difluoromethoxy-pyridine-2-carboxylic Acid Amide]
12 | 10.09 | Cc1nc2nonc2c(N)c1Cc1ccc(Br)c(OCC2(C)COC2)n1 [Example 95, 6-[5-Bromo-6-(3-methyl-oxetan-3-ylmethoxy)-pyridin-2-ylmethyl]-5-methyl-[1,2,5]oxadiazolo[3,4-b]pyridin-7-ylamine]
13 | 10.66 | COc1nc(Cc2c(C)nc3nonc3c2N)ccc1Br [Example 97, 6-(5-Bromo-6-methoxy-pyridin-2-ylmethyl)-5-methyl-[1,2,5]oxadiazolo[3,4-b]pyridin-7-ylamine]
14 | 8.72 | Cc1nc2nonc2c(N)c1Cc1ccc(Br)c(OC2COC2)n1 [Example 98, 6-[5-Bromo-6-(oxetan-3-yloxy)-pyridin-2-ylmethyl]-5-methyl-[1,2,5]oxadiazolo[3,4-b]pyridin-7-ylamine]
15 | 10.14 | Cc1nc2nonc2c(N)c1Cc1ccc(Br)c(OCC(C)(F)F)n1 [Example 99, 6-[5-Bromo-6-(2,2-difluoro-propoxy)-pyridin-2-ylmethyl]-5-methyl-[1,2,5]oxadiazolo[3,4-b]pyridin-7-ylamine]
16 | 10.47 | Cc1nc2nonc2c(N)c1Cc1ccc(Br)c(OCCF)n1 [Example 100, 6-[5-Bromo-6-(2-fluoro-ethoxy)-pyridin-2-ylmethyl]-5-methyl-[1,2,5]oxadiazolo[3,4-b]pyridin-7-ylamine]
